Test results published in the supplement of paper PMC11061612.

Columns and labels:
Trametinib = compound: CC(=O)Nc1cccc(-n2c(=O)n(C3CC3)c(=O)c3c(Nc4ccc(I)cc4F)n(C)c(=O)c(C)c32)c1 [Trametinib]; conditions: max 1 µM
Outline: (§1)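 Plates with 1536 wells received cancer cell lines in 7.5 μl of DMEM/F12 or RPMI containing 10% FBS. After 24 hours at 37°C and 5% CO2, cells were dosed for 72 hours with final DMSO typically 0.2%, and viability was read by CellTiter-Glo 2.0 luminescence scaled between blank-well and DMSO-well means. The single-agent IC50 was taken from a logistic fit of the dose responses made with a non-linear mixed effects model, that logistic curve having two parameters.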

AZD1390 = compound: CC(C)n1c(=O)n(C)c2cnc3cc(F)c(-c4ccc(OCCCN5CCCCC5)nc4)cc3c21 [AZD1390]; conditions: max 0.3 µM
Outline: as §1

AZD5153 = compound: COc1nnc2ccc(N3CCC(c4ccc(OCCN5CCN(C)C(=O)[C@H]5C)cc4)CC3)nn12 [AZD5153]; conditions: max 1 µM
Outline: as §1

SG3199 = compound: CC1=CN2[C@@H](C1)C=NC3=CC(=C(C=C3C2=O)OC)OCCCCCOC4=C(C=C5C(=C4)N=C[C@@H]6CC(=CN6C5=O)C)OC [SG3199]; conditions: max 0.001 µM
Outline: as §1

Gefitinib = compound: COc1cc2ncnc(Nc3ccc(F)c(Cl)c3)c2cc1OCCCN1CCOCC1 [Gefitinib]; conditions: max 10 µM
Outline: as §1

AZD8186 = compound: C[C@@H](Nc1cc(F)cc(F)c1)c1cc(C(=O)N(C)C)cc2c(=O)cc(N3CCOCC3)oc12 [AZD8186]; conditions: max 3 µM
Outline: as §1

AZD0156 = compound: CN(C)CCCOc1ccc(-c2ccc3ncc4c(c3c2)n(C2CCOCC2)c(=O)n4C)cn1 [AZD0156]; conditions: max 3 µM
Outline: as §1

Capivasertib = compound: C1CN(CCC1(C(=O)N[C@@H](CCO)C2=CC=C(C=C2)Cl)N)C3=NC=NC4=C3C=CN4 [Capivasertib]; conditions: max 10 µM
Outline: as §1

Crizotinib = compound: C[C@@H](Oc1cc(-c2cnn(C3CCNCC3)c2)cnc1N)c1c(Cl)ccc(F)c1Cl [Crizotinib]; conditions: max 10 µM
Outline: as §1

Lapatinib = compound: CS(=O)(=O)CCNCc1ccc(-c2ccc3ncnc(Nc4ccc(OCc5cccc(F)c5)c(Cl)c4)c3c2)o1 [Lapatinib]; conditions: max 10 µM
Outline: as §1

Dasatinib = compound: CC1=C(C(=CC=C1)Cl)NC(=O)C2=CN=C(S2)NC3=CC(=NC(=N3)C)N4CCN(CC4)CCO [Dasatinib]; conditions: max 2 µM
Outline: as §1

Doxorubicin = compound: COc1cccc2c1C(=O)c1c(O)c3c(c(O)c1C2=O)C[C@@](O)(C(=O)CO)C[C@@H]3O[C@H]1C[C@H](N)[C@H](O)[C@H](C)O1 [Doxorubicin]; conditions: max 1 µM
Outline: as §1

AZD2811 = compound: CCN(CCO)CCCOc1ccc2c(Nc3cc(CC(=O)Nc4cccc(F)c4)[nH]n3)ncnc2c1 [AZD2811]; conditions: max 1 µM
Outline: as §1

AZD5991 = compound: Cc1c2c(nn1C)CSCc1cc(n(C)n1)CSc1cc(c3ccccc3c1)OCCCc1c(C(=O)O)n(C)c3c-2c(Cl)ccc13 [AZD5991]; conditions: max 1 µM
Outline: as §1

AZD4320 = compound: CN(CC[C@H](CSC1=CC=CC=C1)NC2=C(C=C(C=C2)S(=O)(=O)NC(=O)C3=CC=C(C=C3)N4CCC(CC4)[C@H](C5=CC=CC=C5C6=CC=C(C=C6)Cl)O)S(=O)(=O)C(F)(F)F)CCO [AZD4320]; conditions: max 1 µM
Outline: as §1

Savolitinib = compound: C[C@@H](c1ccc2nccn2c1)n1nnc2ncc(-c3cnn(C)c3)nc21 [Savolitinib]; conditions: max 1 µM
Outline: as §1

Olaparib = compound: O=C(c1cc(Cc2n[nH]c(=O)c3ccccc23)ccc1F)N1CCN(C(=O)C2CC2)CC1 [Olaparib]; conditions: max 10 µM
Outline: as §1

Prexasertib = compound: COc1cccc(OCCCN)c1-c1cc(Nc2cnc(C#N)cn2)n[nH]1 [Prexasertib]; conditions: max 1 µM
Outline: as §1

Palbociclib = compound: CC(=O)c1c(C)c2cnc(Nc3ccc(N4CCNCC4)cn3)nc2n(C2CCCC2)c1=O [Palbociclib]; conditions: max 10 µM
Outline: as §1

Taselisib = compound: Cc1nc(-c2cn3c(n2)-c2ccc(-c4cnn(C(C)(C)C(N)=O)c4)cc2OCC3)n(C(C)C)n1 [Taselisib]; conditions: max 10 µM
Outline: as §1

Selumetinib = compound: Cn1cnc2c(F)c(Nc3ccc(Br)cc3Cl)c(C(=O)NOCCO)cc21 [Selumetinib]; conditions: max 10 µM
Outline: as §1

SN-38 = compound: CCc1c2c(nc3ccc(O)cc13)-c1cc3c(c(=O)n1C2)COC(=O)[C@]3(O)CC [SN-38]; conditions: max 0.3 µM
Outline: as §1

Alisertib = compound: COc1cc(Nc2ncc3c(n2)-c2ccc(Cl)cc2C(c2c(F)cccc2OC)=NC3)ccc1C(=O)O [Alisertib]; conditions: max 10 µM
Outline: as §1

AZD1775 = compound: C=CCn1c(=O)c2cnc(Nc3ccc(N4CCN(C)CC4)cc3)nc2n1-c1cccc(C(C)(C)O)n1 [AZD1775]; conditions: max 3 µM
Outline: as §1

AZD7648 = compound: Cc1cc2ncnn2cc1Nc1ncc2c(n1)n(C1CCOCC1)c(=O)n2C [AZD7648]; conditions: max 10 µM
Outline: as §1

AZD6738 = compound: C[C@@H]1COCCN1C2=NC(=NC(=C2)C3(CC3)[S@](=N)(=O)C)C4=C5C=CNC5=NC=C4 [AZD6738]; conditions: max 10 µM
Outline: as §1

Venetoclax = compound: CC1(C)CCC(CN2CCN(c3ccc(C(=O)NS(=O)(=O)c4ccc(NCC5CCOCC5)c([N+](=O)[O-])c4)c(Oc4cnc5[nH]ccc5c4)c3)CC2)=C(c2ccc(Cl)cc2)C1 [Venetoclax]; conditions: max 1 µM
Outline: as §1

Row | Cell Line | IC50, cell viability 72 h (Trametinib) [nM] | IC50, cell viability 72 h (AZD1390) [nM] | IC50, cell viability 72 h (AZD5153) [nM] | IC50, cell viability 72 h (SG3199) [nM] | IC50, cell viability 72 h (Gefitinib) [nM] | IC50, cell viability 72 h (AZD8186) [nM] | IC50, cell viability 72 h (AZD0156) [nM] | IC50, cell viability 72 h (Capivasertib) [nM] | IC50, cell viability 72 h (Crizotinib) [nM] | IC50, cell viability 72 h (Lapatinib) [nM] | IC50, cell viability 72 h (Dasatinib) [nM] | IC50, cell viability 72 h (Doxorubicin) [nM] | IC50, cell viability 72 h (AZD2811) [nM] | IC50, cell viability 72 h (AZD5991) [nM] | IC50, cell viability 72 h (AZD4320) [nM] | IC50, cell viability 72 h (Savolitinib) [nM] | IC50, cell viability 72 h (Olaparib) [nM] | IC50, cell viability 72 h (Prexasertib) [nM] | IC50, cell viability 72 h (Palbociclib) [nM] | IC50, cell viability 72 h (Taselisib) [nM] | IC50, cell viability 72 h (Selumetinib) [nM] | IC50, cell viability 72 h (SN-38) [nM] | IC50, cell viability 72 h (Alisertib) [nM] | IC50, cell viability 72 h (AZD1775) [nM] | IC50, cell viability 72 h (AZD7648) [nM] | IC50, cell viability 72 h (AZD6738) [nM] | IC50, cell viability 72 h (Venetoclax) [nM]
1 | NCI-H1623 (Lung Adenocarcinoma) | 229 | > 300 | > 1000 | > 1 | 714 | > 3000 | > 3000 | > 10000 | > 10000 | 902 | > 2000 | > 1000 | > 1000 | 163 | > 1000 | > 1000 | > 10000 | 89.5 | > 10000 | 340 | > 10000 | 7.47 | > 10000 | > 3000 | > 10000 | 8050 | > 1000
2 | OCI-AML5 (Acute Myeloid Leukemia) | 28.9 | > 300 | 323 | > 1 | > 10000 | > 3000 | > 3000 | > 10000 | 2410 | > 10000 | > 2000 | 658 | 18.6 | 58.8 | 42.7 | > 1000 | > 10000 | 13.4 | 6640 | 2190 | 2120 | 9.54 | 1130 | 543 | > 10000 | 2240 | 50.6
3 | OVTOKO (Ovarian Carcinoma) | > 1000 | > 300 | 948 | > 1 | > 10000 | 2650 | > 3000 | 8520 | > 10000 | > 10000 | 56.4 | > 1000 | > 1000 | > 1000 | > 1000 | > 1000 | > 10000 | 714 | > 10000 | 693 | > 10000 | > 300 | > 10000 | 2100 | > 10000 | > 10000 | > 1000
4 | RERF-LC-KJ (Lung Adenocarcinoma) | > 1000 | > 300 | 83.7 | > 1 | > 10000 | > 3000 | > 3000 | > 10000 | > 10000 | > 10000 | > 2000 | > 1000 | > 1000 | > 1000 | > 1000 | > 1000 | > 10000 | > 1000 | > 10000 | 6500 | > 10000 | 240 | > 10000 | > 3000 | > 10000 | > 10000 | > 1000
